Test results reported in patent US11471477B2, “Methods for treating triple-negative breast cancer” (Chan Zuckerberg Biohub, Inc., priority 2017, dated 2022).

What was measured:
[1] = system: PDX-T1; test: Survival of mice engrafted with shRNA-transduced PDX-T1 xenografts; assay type: in vivo, NSG mice; details: mice with PDX-T1 tumors; vs control shRNA; sacrificed when tumor exceeded 17 mm
Text: We explored the effect of CDK19 knockdown on the growth of pre-established organoids in vitro and in pre-established PDX tumors in vivo. This aimed to model the treatment of patients' pre-existing tumors. […] In FIGS. 4A and 4B, number of organoid colonies at Day 0 (FIG. 4A) and Day 16 (FIG. 4B) after initiating doxycycline treatment is shown, ****P<0.0001; ns is P>0.05 (mean s.d., n=6, experiment performed twice, P values determined by unpaired t-test). […] In FIGS. 4C and 4D, the growth of pre-established tumors in the doxycycline fed NSG mice and control NSG mice are shown for inducCDK19KD-PDX-T1, ****P<0.0001; ***P<0.001 (mean±s.d., n=5, experiment performed twice, P values determined by unpaired t-test) (FIG. 4C) and inducCDK19KD-PDX-T3, ****P<0.0001; ***P<0.001 (mean±s.d., n=5, experiment performed once, P values determined by unpaired t-test) (FIG. 4D). CDK19 shRNA induced tumors were ultimately 82% smaller in inducCDK19KD-PDX-T1 tumors and 38% smaller in inducCDK19KD-PDX-T3 tumors when compared to control tumors (FIGS. 4C and 4D). […] Shown in FIG. 4E are Kaplan-Meir survival curves for mice engrafted with PDX-T1 xenografts transduced with control shRNA (black line), shCDK19-1 (solid gray line) or shCDK19-2 (dashed gray line). Mice were followed with weekly measurements of tumor diameters. Mice were sacrificed when the longest diameter of their tumor exceeded 17 mm. […]

[2] = system: PDX-T4; test: RFP positive lung metastases in mice bearing PDX tumor xenografts; assay type: in vivo, NSG mice
Text: (§1) Xenograft tumors and mice lungs were surgically resected after the mice were euthanized. A 3 to 4 mm section is cut from each tumor and saved in ice cold PBS for imaging. The mice lungs and tumors were imaged on a M205FA Fluorescence Stereo Microscope (Leica) and images were captured with a DFC310FX camera (Leica).
(§2) Percentage of mice with RFP positive lung metastases from mice bearing PDX-T1 (FIG. 1K) or PDX-T4 (FIG. 1L) tumor xenografts are shown. Number of mice with RFP positive lung metastases and total number of mice in each treatment group is shown as a fraction for each condition. PDX tumor cells were transduced with either control shRNA or CDK19 targeting shRNA (shCDK19-1, shCDK19-2) (For FIG. 1K, n=9, experiment performed three times; For […], n=3, experiment performed once). […] In FIG. 1N, bright field images (left column) show gross lung morphology, FITC images (middle column) identify metastatic tumor cells labeled with GFP, and Texas-Red images (right column) identify shRNA-transduced metastatic cells labeled with RFP. We also tested the effect of CDK19 knockdown on PDX-T4, an aggressive PDX obtained from the brain metastasis of a patient with a chemotherapy-resistant inflammatory breast cancer.

[3] = system: PDX-T1; test: as above; assay type: in vivo, NSG mice
Text: as §1, §2

[4] = system: CDK19; test: Quantitative PCR RNA expression analysis of CDK19 knockdown; assay type: cell-based, human; details: normalized to control shRNA and beta-actin
Procedure: Cells were lysed with Trizol (Life Technologies) and RNA was extracted according to the manufacturer's instruction. RNA was then treated with DNAsel to remove contaminating genomic DNA. RNA was reverse transcribed to cDNA using SuperScript III First Strand Synthesis kit (Life Technologies) according to the manufacturer's instructions. TaqMan Gene Expression Master Mix (Applied Biosystems) and the following TaqMan Gene Expression Assays (Applied Biosystems) were used following manufacturer's instructions: ACTB, Hs00357333_g1; CDK19, Hs01039931_m1; CDK8, Hs00993274_m1. Data was collected on a 7900HT Fast Real-Time PCR System (Applied Biosystems) and data analyzed with SDS 2.4 software (Applied Biosystems). Gene expression data in each sample was normalized against the expression of beta-actin.

[5] = system: PDX-T4; test: PDX tumor growth in NSG mice, percentage of RFP positive cells by flow cytometry; assay type: in vivo
Procedure: (§3) For in vivo PDX tumor growth and organoid colony formation experiments, concentrated lentiviral supernatant (to achieve an MOI of 10) was mixed with single cell suspensions of PDX tumor cells in organoid media with 4 μg/mL of Polybrene (Sigma-Aldrich). Organoid media consisted of: Advanced DMEM/F12 (Invitrogen), 10% FBS (Hyclone), 2.5% growth factor-reduced Matrigel (BD), 10 ng/mL mouse EGF (R&D), 100 ng/mL Noggin (R&D), 250 ng/mL RSPO-1 (R&D), 1× B27 (Invitrogen), 1× N2 (Invitrogen), and PSA (Life Technologies). Cells were then spinoculated by centrifuging at 15° C. for 2 hours at 1200×g. Cells were resuspended by pipetting and left overnight in 48-well ultra-low attachment cell culture plates (Corning).
(§4) For organoid colony formation assays, cells were transferred the next day to matrigel. For in vivo PDX assays, approximately 75% of the cells were injected into NSG mice as described in the PDX tumor engraftment section. The remainder 25% of cells were plated on matrigel and grown in organoid media for 72 hours until the cells became RFP positive. At that point media was removed and exchanged for dispase and incubated for 2-3 h until the matrigel dissolved. Dissociated cells were resuspended in flow cytometry buffer and analyzed by flow cytometry to determine the ‘baseline’ RFP percentage for cells that were injected into the mice.
(§5) Single cell suspensions of PDX cells were resuspended in 50% (v/v) mixtures of normal matrigel (BD Biosciences) and flow cytometry buffer in a total volume of 50-100 μL. Using an insulin syringe, cells were injected subcutaneously into the nipple of female NSG mice at the fourth abdominal fat pad. For limiting dilution assays, the specific number of cells injected into the mice were determined by flow cytometry and secondarily by manual counting with a hemocytometer.
(§6) Flow cytometry was performed with a 100 μm nozzle on a Flow Cytometry Aria II (BD Biosciences) with Diva software (BD Biosciences). Data analysis was performed using Flowjo software (Flowjo). For all experiments, side scatter and forward scatter profiles (area and width) were used to eliminate debris and cell doublets. Dead cells were eliminated by excluding 4′,6-diamidino-2-phenylindole (DAPI)-positive cells (Molecular Probes). For PDX tumor cells, they were gated for GFP positivity and then for RFP positivity. RFP percentage is the percentage of GFP positive cells that are also RFP positive. For each sample, we obtain the RFP fraction that is: the RFP % in the tumor divided by the baseline RFP % (see ‘Lentivirus infection’ section). RFP fraction for each sample is then normalized to the RFP fraction for the shRNA control sample which is set at 100% to obtain the ‘Normalized % RFP’.

[6] = system: PDX-T3; test: as above; assay type: in vivo; details: normalized to control shRNA
Procedure: as §3, §4, §5, §6

[7] = system: PDX-T2; test: as above; assay type: in vivo; details: normalized to control shRNA
Procedure: as §3, §4, §5, §6

[8] = system: PDX-T1; test: as above; assay type: in vivo; details: normalized to control shRNA
Procedure: as §3, §4, §5, §6

[9] = system: MDA-MB231 cells; test: Cell viability assay (WST-1), shRNA-transduced cells; assay type: cell-based, human; details: 4 days after transduction; normalized to control shRNA
Procedure: (§7) For in vitro cell line experiments, concentrated lentiviral supernatant (to achieve an MOI of 3) was mixed with cells at the time of seeding. Cells were monitored by visualization of RFP under fluorescence microscopy. All flow cytometry analyses were performed after at least 72 hours of infection.
(§8) For cell lines treated with chemical or infected with lentivirus, WST-1 Cell Proliferation Reagent (Roche) was added at 1:10 (v/v) final dilution to each well per manufacturer's instructions. Cells were subsequently incubated at 37° C. and 5% CO2. Between 1 and 4 hours after addition of reagent, plates were analyzed on a SpectraMax M3 Bioanalyzer (Molecular Devices). Absorbance for each well was measured at 450 nm (signal wavelength) and 650 nm (reference wavelength). Thus, the signal for each experimental sample was Absorbanceexperimental (A450nm-A650nm). To correct for the effect of media, Absorbancebackground (A450nm-A650nm) was obtained by measuring absorbance in a blank well. Thus, the background corrected signal for each sample Acorrected=Absorbanceexperimental−Absorbancebackground. All Acorrected values for the knockdowns were normalized to the Acorrected value for the control sample to obtain a ‘Relative Viability’.

[10] = system: HS578T cells; test: as above; assay type: cell-based, human; details: 4 days after transduction; normalized to control shRNA
Procedure: as §7, §8

[11] = system: MDA-MB468 cells; test: as above; assay type: cell-based, human; details: 4 days after transduction; normalized to control shRNA
Procedure: as §7, §8

[12] = system: PDX-T1 tumor cells; test: Organoid colony formation assay; assay type: cell-based, human; details: colonies counted 2 weeks after transduction
Procedure: as §3
For organoid colony formation assays, cells were transferred the next day to matrigel. For in vivo PDX assays, approximately 75% of the cells were injected into NSG mice as described in the PDX tumor engraftment section. […] Dissociated cells were resuspended in flow cytometry buffer and analyzed by flow cytometry to determine the ‘baseline’ RFP percentage for cells that were injected into the mice.
Irradiated L1-Wnt3a feeder cells (generous gift of Dr. Roel Nusse) were mixed with growth factor reduced matrigel (BD Biosciences) and allowed to solidify at 37° C. […] Colonies were counted under fluorescence microscopy. Only RFP positive colonies (which represent transduced cells) were counted. […]

[13] = system: human mammary epithelial cells (HMEC); test: Cell viability assay (WST-1), non-transformed mammary cells; assay type: cell-based; details: 4 days after transduction; normalized to control shRNA
Procedure: as §7, §8

## shCDK19-1: CDK19 targeting shRNA, sense strand 5′-GCGAGAATTGAAGTACCTTAA-3′ (SEQ ID NO: 1), lentiviral vector (sense GCGAGAATTGAAGTACCTTAA; listed as Homo sapiens)
[1]
  Overall survival: significantly longer
[2]
  RFP positive lung metastases: prevented transduced (RFP positive) TNBC cells from metastasizing to the lungs
[3]
  RFP positive lung metastases: eliminated the detection of any lung metastases
[4]; MDA-MB231
  Expression of CDK19 by RT-qPCR: effectively silences CDK19
[4]; MDA-MB468
  Expression of CDK19 by RT-qPCR: effectively silences CDK19
[4]; PDX-T1
  Expression of CDK19 by RT-qPCR: effectively silences CDK19
[5]
  Growth of the PDX: inhibited both the growth of the PDX
[6]
  Percentage of RFP positive cells in tumors: significant reduction in the percentage of RFP positive cells
[7]
  Percentage of RFP positive cells in tumors: significant reduction in the percentage of RFP positive cells
[8]
  Percentage of RFP positive cells in tumors: significant reduction in the percentage of RFP positive cells
[9]
  Relative viability of MDA-MB231 cells: significantly decreased the viability
[10]
  Relative viability of HS578T cells: significantly decreased the viability
[11]
  Relative viability of MDA-MB468 cells: significantly decreased the viability
[12]
  Formation of organoid colonies: inhibited the formation of organoid colonies
[13]
  Relative viability of HMEC cells: neither of the two CDK19 knockdowns affected the viability

## shCDK19-2: CDK19 targeting shRNA, sense strand 5′-ACCAGCAAATATCCTAGTAAT-3′ (SEQ ID NO: 2), lentiviral vector (sense ACCAGCAAATATCCTAGTAAT; listed as Homo sapiens)
[1]
  Overall survival: significantly longer
[2]
  RFP positive lung metastases: prevented transduced (RFP positive) TNBC cells from metastasizing to the lungs
[3]
  RFP positive lung metastases: eliminated the detection of any lung metastases
[4]; MDA-MB231
  Expression of CDK19 by RT-qPCR: effectively silences CDK19
[4]; MDA-MB468
  Expression of CDK19 by RT-qPCR: effectively silences CDK19
[4]; PDX-T1
  Expression of CDK19 by RT-qPCR: effectively silences CDK19
[5]
  Growth of the PDX: inhibited both the growth of the PDX
[6]
  Percentage of RFP positive cells in tumors: significant reduction in the percentage of RFP positive cells
[7]
  Percentage of RFP positive cells in tumors: significant reduction in the percentage of RFP positive cells
[8]
  Percentage of RFP positive cells in tumors: significant reduction in the percentage of RFP positive cells
[9]
  Relative viability of MDA-MB231 cells: significantly decreased the viability
[10]
  Relative viability of HS578T cells: significantly decreased the viability
[11]
  Relative viability of MDA-MB468 cells: significantly decreased the viability
[12]
  Formation of organoid colonies: inhibited the formation of organoid colonies
[13]
  Relative viability of HMEC cells: neither of the two CDK19 knockdowns affected the viability
